This assay has as its target T1, glycine binding pocket of the NMDA receptor (Rattus norvegicus, UniProt P35439).
T1 construct: For isolation of the cell membranes, the cortices are homogenized; from tissue; host or cells: rat cerebral cortex membranes (male Sprague-Dawley)
Kind of assay: [3H]MDL-105,519 displacement studies (rat cortical membranes). The settings on record: displacement of 2 nM [3H]-MDL-105,519, rat cortical membranes; read-out: NMDA-MDL 105519-r-CTX - IC50. How it is done:
Anaesthetised male Sprague-Dawley rats (200-250 g, Janvier, Le Genest-Isle, France) are decapitated and their brains removed rapidly. […] For isolation of the cell membranes, the cortices are homogenized in 20 volumes of ice-cold 0.32 M sucrose (Sigma-Aldrich, Taufkirchen, Germany) using a glass-Teflon homogenizer. The homogenate is centrifuged at 1000×g for 10 minutes, the pellet is discarded and the supernatant centrifuged at 20,000×g for 20 minutes. The resulting pellet is re-suspended in 20 volumes of distilled water and centrifuged for 20 minutes at 8000×g. The supernatant and the buffy coat are then centrifuged three times (48,000×g for 20 minutes) in the presence of 50 mM Tris-HCl, pH 8.0 (assay buffer). All centrifugation steps are carried out at 4° C. After resuspension in 5 volumes of 50 mM Tris-HCl, pH 7.5, the membrane suspension is frozen rapidly at −80° C. On the day of assay, the membranes are thawed and washed four times by resuspension in 50 mM Tris-HCl, pH 7.5, and centrifugation at 48,000×g for 20 minutes. The final pellet is suspended in assay buffer. […] The final protein concentration used for our studies is 400 μg/ml.
A robotic system designed for binding assays (Tecan Deutschland GmbH, Crailsheim, Germany) is loaded with the membrane solution, solutions for bound control (buffer/DMSO 20%), unlabeled glycine (1 mM) for evaluation of non-specific binding, all compounds to be tested (at 20-fold concentrations), radioligand and respective 96-well plates.
The protein/receptor concentration is held constant whereas the amount of specific bound radioligand is determined using increasing concentrations of ligand.
Firstly, the assay plates are loaded with membrane solution and are shaken at 4° C. The mother plates are then prepared by pipetting the compounds into assay buffer/20% DMSO to obtain the desired final concentrations (dose response curve with five different concentrations, e.g. 10, 3, 1, 0.3, and 0.1 μM). After transferring radioligand into the assay plates, the compounds are added (including the bound and the non-specific binding control). The final DMSO concentration is 1%. The assay plates are incubated and shaken at 4° C. for 1 h, before the mixture is exhausted as rapidly as possible via a vacuum manifold using the Multiscreen HTS glass fibre (type B) filter plates (Millipore, Schwalbach, Germany) under a constant vacuum of 450 mbar. The membranes are washed four times with cold assay buffer ([…]). 50 μL of Ultima Gold scintillation cocktail (PerkinElmer, Rodgau-Jügesheim, Germany) is added to the wet filter plates and incubated at room temperature overnight before counting the disintegration per minutes using a liquid scintillation counter (MicroBeta, PerkinElmer, Rodgau-Jügesheim, Germany).
The residual radioactivity after displacement of the test compound (n=5) is then corrected with respect to the set controls.

As a reminder, the IC50 is the concentration at which inhibition is half-maximal.

Take `COc1cccc(NC(=O)COc2cc(C(=O)O)cc3cc(Cl)cc(Cl)c23)c1` [Example 6, 5,7-Dichloro-4-[(3-methoxyphenylcarbamoyl)-methoxy]-naphthalene-2-carboxylic acid]: the IC50 worked out at 1790 nM.
To `O=C(O)c1cc(OCC(=O)N2CC(C(=O)O)Oc3ccccc32)c2c(Cl)cc(Cl)cc2c1` (centres unmarked) [Example 43, 4-[2-(3-Carboxy-6,8-dichloronaphthalen-1-yloxy)-acetyl]-3,4-dihydro-2H-benzo[1,4]oxazine-2-carboxylic acid] belongs 3070 nM; to `O=C(O)c1cc(OCC(=O)N2CCCC2C(=O)O)c2c(Cl)cc(Cl)cc2c1` (centres unmarked) [Example 35, 1-[2-(3-Carboxy-6,8-dichloronaphthalen-1-yloxy)-acetyl]-pyrrolidine-2-carboxylic acid], 1420 nM; to `O=C(O)COc1ccc(NC(=O)COc2cc(C(=O)O)cc3cc(Cl)cc(Cl)c23)cc1` [Example 44, 4-[(4-Carboxymethoxy-phenylcarbamoyl)-methoxy]-5,7-dichloro-naphthalene-2-carboxylic acid], 3390 nM.
Take `CN(C(=O)COc1cc(C(=O)O)cc2cc(Cl)cc(Cl)c12)c1cccc(CC(=O)O)c1` [Example 40, 4-{[(3-Carboxymethylphenyl)-methyl-carbamoyl]-methoxy}-5,7-dichloronaphthalene-2-carboxylic acid]: the IC50 is 3580 nM.
Take `COc1cccc(CO)c1NC(=O)COc1cc(C(=O)O)cc2cc(Cl)cc(Cl)c12` [Example 76, 5,7-Dichloro-4-[(2-hydroxymethyl-6-methoxy-phenylcarbamoyl)-methoxy]-naphthalene-2-carboxylic acid]: the IC50 was determined as 1220 nM.
Next, `N#CCc1ccc(NC(=O)COc2cc(C(=O)O)cc3cc(Cl)cc(Cl)c23)cc1` [Example 112, 5,7-Dichloro-4-[(4-cyanomethyl-phenylcarbamoyl)-methoxy]-naphthalene-2-carboxylic acid]: 637 nM; `CN(C)CCN(C)C(=O)COc1ccccc1NC(=O)COc1cc(C(=O)O)cc2cc(Cl)cc(Cl)c12` [Example 110, 5,7-Dichloro-4-[(2-{[(2-dimethylamino-ethyl)-methyl-carbamoyl]-methoxy}-phenylcarbamoyl)-methoxy]-napthalene-2-carboxylic acid]: 1310 nM.
To `CN(C)CCNC(=O)COc1ccccc1NC(=O)COc1cc(C(=O)O)cc2cc(Cl)cc(Cl)c12` [Example 109, 5,7-Dichloro-4-({2-[(2-dimethylamino-ethylcarbamoyl)-methoxy]-phenylcarbamoyl}-methoxy)-naphthalene-2-carboxylic acid] belongs 650 nM.
Next, `O=C(COc1cc(C(=O)O)cc2cc(Cl)cc(Cl)c12)Nc1cccc(CO)c1OCCO` [Example 124, 5,7-Dichloro-4-{[2-(2-hydroxy-ethoxy)-3-hydroxymethyl-phenylcarbamoyl]-methoxy}-naphthalene-2-carboxylic acid]: 428 nM; `O=C(COc1cc(C(=O)O)cc2cc(Cl)cc(Cl)c12)NCc1ccccc1OC(F)(F)F` [Example 61, 5,7-Dichloro-4-[(2-trifluoromethoxy-benzylcarbamoyl)-methoxy]-naphthalene-2-carboxylic acid]: 1560 nM.
Regarding `O=C(COc1cc(C(=O)O)cc2cc(Cl)cc(Cl)c12)Nc1ccccc1` [Example 33, 5,7-Dichloro-4-phenylcarbamoylmethoxynaphthalene-2-carboxylic acid], the half-maximal inhibitory concentration (IC50) worked out at 769 nM.
Next, `CN(C)C(=O)COc1cc(CN)ccc1NC(=O)COc1cc(C(=O)O)cc2cc(Cl)cc(Cl)c12` [Example 123, 4-[(4-Aminomethyl-2-dimethylcarbamoylmethoxy-phenylcarbamoyl)-methoxy]-5,7-dichloronaphthalene-2-carboxylic acid]: 113 nM; `CN(C)CCOc1ccc(NC(=O)COc2cc(C(=O)O)cc3cc(Cl)cc(Cl)c23)cc1CO` [Example 87, 5,7-Dichloro-4-{[4-(2-dimethylamino-ethoxy)-3-hydroxymethyl-phenylcarbamoyl]-methoxy}-naphthalene-2-carboxylic acid]: 324 nM; `O=C(COc1cc(C(=O)O)cc2cc(Cl)cc(Cl)c12)NCc1ccccc1OCc1nnn[nH]1` [Example 125, 5,7-Dichloro-4-{[2-(1H-tetrazol-5-ylmethoxy)-benzylcarbamoyl]-methoxy}-naphthalene-2-carboxylic acid]: 254 nM.
To `O=C(COc1cc(C(=O)O)cc2cc(Cl)cc(Cl)c12)Nc1ccc(CO)cc1` [Example 9, 5,7-Dichloro-4-[(4-hydroxymethyl-phenylcarbamoyl)-methoxy]-naphthalene-2-carboxylic acid] belongs 404 nM.
Next, `CNCc1ccc(NC(=O)COc2cc(C(=O)O)cc3cc(Cl)cc(Cl)c23)c(OCC(=O)O)c1` [Example 111, 4-[(2-Carboxymethoxy-4-methylaminomethyl-phenylcarbamoyl)-methoxy]-5,7-dichloro-naphthalene-2-carboxylic acid]: 24 nM; `N#Cc1ccc(CNC(=O)COc2cc(C(=O)O)cc3cc(Cl)cc(Cl)c23)cc1` [Example 117, 5,7-Dichloro-4-[(4-cyano-benzylcarbamoyl)-methoxy]-naphthalene-2-carboxylic acid]: 1940 nM.
For `NC(=O)COc1cccc(NC(=O)COc2cc(C(=O)O)cc3cc(Cl)cc(Cl)c23)c1` [Example 93, 4-[(3-Carbamoylmethoxy-phenylcarbamoyl)-methoxy]-5,7-dichloro-naphthalene-2-carboxylic acid], the IC50 amounted to 520 nM.
Regarding `N#Cc1cccc(NC(=O)COc2cc(C(=O)O)cc3cc(Cl)cc(Cl)c23)c1` [Example 98, 5,7-Dichloro-4-[(3-cyano-phenylcarbamoyl)-methoxy]-naphthalene-2-carboxylic acid], the IC50 was determined as 1120 nM.
For the compound `COc1ccc(C(=O)COc2cc(C(=O)O)cc3cc(Cl)cc(Cl)c23)cc1` [Example 4, 5,7-Dichloro-4-[2-(4-methoxyphenyl)-2-oxo-ethoxy]-naphthalene-2-carboxylic acid], the IC50 came out at 6740 nM.
For `CN(C)C(=O)COc1ccccc1NC(=O)COc1cc(C(=O)O)cc2cc(Cl)cc(Cl)c12` [Example 102, 5,7-Dichloro-4-[(2-dimethylcarbamoylmethoxy-phenylcarbamoyl)-methoxy]-naphthalene-2-carboxylic acid], the IC50 turned out to be 134 nM.
As for `O=C(COc1cc(C(=O)O)cc2cc(Cl)cc(Cl)c12)Nc1ccc(-c2nnn[nH]2)cc1` [Example 89, 5,7-Dichloro-4-{[4-(1H-tetrazol-5-yl)-phenylcarbamoyl]-methoxy}-naphthalene-2-carboxylic acid], the concentration for half-maximal inhibition (IC50) came to 1260 nM.
To `O=C(COc1cc(C(=O)O)cc2cc(Cl)cc(Cl)c12)N[C@@H](CO)c1ccccc1` [Example 29] belongs 983 nM.
Turning to `O=C(COc1cc(C(=O)O)cc2cc(Cl)cc(Cl)c12)N[C@@H]1C[C@H]1c1ccccc1` (relative stereo) [Example 66, 5,7-Dichloro-4-[(trans-2-phenyl-cyclopropylcarbamoyl)-methoxy]-naphthalene-2-carboxylic acid], the IC50 came out at 935 nM.
To `O=C(O)CC(Cc1ccccc1)NC(=O)COc1cc(C(=O)O)cc2cc(Cl)cc(Cl)c12` (centres unmarked) [Example 37, 4-[(1-Carboxymethyl-2-phenylethylcarbamoyl)-methoxy]-5,7-dichloronaphthalene-2-carboxylic acid] belongs 4780 nM.
